Values belong to the compound of their own block, whether it stands above or below them.
Key:
Experiment in all cases: Cell proliferation assay (Alamar Blue)
Format in all cases: cell-based
HUH7 = HUH7 liver cancer cell line, 6 days culture
Procedure, shortened: (§1)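 Resazurin-based viability: cells grown 6 d with compound at 37 °C, 5% CO2, then AlamarBlue 1-4 h, Ex 560/Em 590 nm. Dose range 9 points, 3.16-fold, top 100 or 30 μM. IC50 by nonlinear regression.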

TE-6 = TE-6 tumor cell line, 6 days culture
Procedure, shortened: as §1

LC-2-ad = LC-2-ad tumor cell line, 6 days culture
Procedure, shortened: as §1

HT1080 = HT1080 tumor cell line, 6 days culture
Procedure, shortened: as §1

NCI-H526 = NCI-H526 tumor cell line, 6 days culture
Procedure, shortened: as §1

SNU387 = SNU387 liver cancer cell line, 6 days culture
Procedure, shortened: as §1

SNU354 = SNU354 liver cancer cell line, 6 days culture
Procedure, shortened: as §1

JHH6 = JHH6 liver cancer cell line, 6 days culture
Procedure, shortened: as §1

MFM-223 = MFM-223 tumor cell line, 6 days culture
Procedure, shortened: as §1

KM12 = KM12 tumor cell line, 6 days culture
Procedure, shortened: as §1

SNU423 = SNU423 liver cancer cell line, 6 days culture
Procedure, shortened: as §1

LNCAP-clone-FGC = LNCAP-clone-FGC tumor cell line, 6 days culture
Procedure, shortened: as §1

Alexander cells = Alexander cells liver cancer cell line, 6 days culture
Procedure, shortened: as §1

NCI-H1703 = NCI-H1703 (lung cancer cells), 6 days culture
Procedure, shortened: as §1

NCI-H661 = NCI-H661 tumor cell line, 6 days culture
Procedure, shortened: as §1

DLD1 = DLD1 tumor cell line, 6 days culture
Procedure, shortened: as §1

HuTu80 = HuTu80 tumor cell line, 6 days culture
Procedure, shortened: as §1

T.T = T.T tumor cell line, 6 days culture
Procedure, shortened: as §1

SNU761 = SNU761 liver cancer cell line, 6 days culture
Procedure, shortened: as §1

HCCLM3 = HCCLM3 tumor cell line, 6 days culture
Procedure, shortened: as §1

Li-7 = Li-7 liver cancer cell line, 6 days culture
Procedure, shortened: as §1

SNU182 = SNU182 liver cancer cell line, 6 days culture
Procedure, shortened: as §1

HUH6 = HUH6 liver cancer cell line, 6 days culture
Procedure, shortened: as §1

K562 = K562 tumor cell line, 6 days culture
Procedure, shortened: as §1

HLE = HLE liver cancer cell line, 6 days culture
Procedure, shortened: as §1

SNU886 = SNU886 liver cancer cell line, 6 days culture
Procedure, shortened: as §1

TE-15 = TE-15 tumor cell line, 6 days culture
Procedure, shortened: as §1

IC50 (HUH7): > 100 µM | IC50 (HT1080): > 100 µM | IC50 (NCI-H526): > 100 µM | IC50 (SNU387): > 100 µM | IC50 (SNU354): > 100 µM | IC50 (SNU423): > 100 µM | IC50 (LNCAP-clone-FGC): > 100 µM | IC50 (NCI-H1703): 1.24 µM | IC50 (NCI-H661): > 100 µM | IC50 (DLD1): > 100 µM | IC50 (SNU761): > 100 µM | IC50 (HCCLM3): > 100 µM | IC50 (SNU182): > 100 µM | IC50 (HUH6): > 100 µM | IC50 (K562): > 100 µM | IC50 (SNU886): > 100 µM
Structure (SMILES): Cc1ccc(F)c(NC(=O)Nc2ccc(-c3cccc4[nH]nc(NC(=O)CCCCCNC(=O)C[C@H](N)C(=O)N[C@@H](CCC(=O)O)C(=O)O)c34)cc2)c1 [Compound 4]
IC50 (TE-6): > 100 µM | IC50 (LC-2-ad): > 100 µM | IC50 (JHH6): > 100 µM | IC50 (MFM-223): > 100 µM | IC50 (KM12): > 100 µM | IC50 (Alexander cells): > 100 µM | IC50 (HuTu80): 75.4 µM | IC50 (T.T): > 100 µM | IC50 (Li-7): > 100 µM | IC50 (HLE): > 100 µM | IC50 (TE-15): > 100 µM

IC50 (HUH7; Homo sapiens, Huh-7, 144 h): > 100 µM | IC50 (HT1080; Homo sapiens, HT-1080, 144 h): > 100 µM | IC50 (NCI-H526; Homo sapiens, 144 h): > 100 µM | IC50 (SNU387; Homo sapiens, SNU-387, 144 h): > 100 µM | IC50 (SNU354; Homo sapiens, SNU-354, 144 h): > 100 µM | IC50 (SNU423; Homo sapiens, SNU-423, 144 h): > 100 µM | IC50 (LNCAP-clone-FGC; Homo sapiens, 144 h): > 100 µM | IC50 (NCI-H1703; Homo sapiens, 144 h): 2.81 µM | IC50 (NCI-H661; Homo sapiens, 144 h): > 100 µM | IC50 (DLD1; Homo sapiens, DLD-1, 144 h): > 100 µM | IC50 (SNU761; 144 h): > 100 µM | IC50 (HCCLM3; Homo sapiens, 144 h): > 100 µM | IC50 (SNU182; Homo sapiens, SNU-182, 144 h): > 100 µM | IC50 (HUH6; Homo sapiens, HuH-6, 144 h): > 100 µM | IC50 (K562; Homo sapiens, 144 h): > 100 µM | IC50 (SNU886; SNU-886, 144 h): > 100 µM
Structure (SMILES): Cc1ccc(F)c(NC(=O)Nc2ccc(-c3cccc4[nH]nc(NC(=O)CCCCCNC(=O)C[C@H](N)C(=O)N[C@@H](CCC(=O)N[C@@H](CCC(=O)N[C@@H](CCC(=O)N[C@@H](CCC(=O)O)C(=O)O)C(=O)O)C(=O)O)C(=O)O)c34)cc2)c1 [Compound 5]
IC50 (TE-6; Homo sapiens, 144 h): > 100 µM | IC50 (LC-2-ad; Homo sapiens, 144 h): > 100 µM | IC50 (JHH6; 144 h): > 100 µM | IC50 (MFM-223; Homo sapiens, 144 h): > 100 µM | IC50 (KM12; Homo sapiens, 144 h): > 100 µM | IC50 (Alexander cells; 144 h): > 100 µM | IC50 (HuTu80; Homo sapiens, 144 h): > 100 µM | IC50 (T.T; Homo sapiens, TT, 144 h): > 100 µM | IC50 (Li-7; 144 h): > 100 µM | IC50 (HLE; Homo sapiens, 144 h): > 100 µM | IC50 (TE-15; Homo sapiens, 144 h): > 100 µM

IC50 (HUH7; Homo sapiens, Huh-7, 144 h): 65.4 µM | IC50 (HT1080; Homo sapiens, HT-1080, 144 h): > 100 µM | IC50 (NCI-H526; Homo sapiens, 144 h): > 100 µM | IC50 (SNU387; Homo sapiens, SNU-387, 144 h): > 100 µM | IC50 (SNU354; Homo sapiens, SNU-354, 144 h): > 100 µM | IC50 (SNU423; Homo sapiens, SNU-423, 144 h): > 100 µM | IC50 (LNCAP-clone-FGC; Homo sapiens, 144 h): > 100 µM | IC50 (NCI-H1703; Homo sapiens, 144 h): 0.19 µM | IC50 (NCI-H661; Homo sapiens, 144 h): > 100 µM | IC50 (DLD1; Homo sapiens, DLD-1, 144 h): > 100 µM | IC50 (SNU761; 144 h): > 100 µM | IC50 (HCCLM3; Homo sapiens, 144 h): > 100 µM | IC50 (SNU182; Homo sapiens, SNU-182, 144 h): > 100 µM | IC50 (HUH6; Homo sapiens, HuH-6, 144 h): > 100 µM | IC50 (K562; Homo sapiens, 144 h): > 100 µM | IC50 (SNU886; SNU-886, 144 h): > 100 µM
Structure (SMILES): Cc1ccc(F)c(NC(=O)Nc2ccc(-c3cccc4[nH]nc(NC(=O)CCCCCCCCCCCNC(=O)C[C@H](N)C(=O)N[C@@H](CCC(=O)N[C@@H](CCC(=O)N[C@@H](CCC(=O)N[C@@H](CCC(=O)O)C(=O)O)C(=O)O)C(=O)O)C(=O)O)c34)cc2)c1 [Compound 8]
IC50 (TE-6; Homo sapiens, 144 h): > 100 µM | IC50 (LC-2-ad; Homo sapiens, 144 h): 82.4 µM | IC50 (JHH6; 144 h): > 100 µM | IC50 (MFM-223; Homo sapiens, 144 h): > 100 µM | IC50 (KM12; Homo sapiens, 144 h): > 100 µM | IC50 (Alexander cells; 144 h): > 100 µM | IC50 (HuTu80; Homo sapiens, 144 h): 50.6 µM | IC50 (T.T; Homo sapiens, TT, 144 h): > 100 µM | IC50 (Li-7; 144 h): > 100 µM | IC50 (HLE; Homo sapiens, 144 h): > 100 µM | IC50 (TE-15; Homo sapiens, 144 h): > 100 µM

The remaining lines, values behind:

Structure (SMILES): Cc1ccc(F)c(NC(=O)Nc2ccc(-c3cccc4[nH]nc(NC(=O)CCCCCCCCCCCNC(=O)C[C@H](N)C(=O)N[C@@H](CCC(=O)O)C(=O)O)c34)cc2)c1 [Compound 7]
IC50 (HUH7): 42.2 µM | IC50 (TE-6): > 100 µM | IC50 (LC-2-ad): 46.4 µM | IC50 (HT1080): > 100 µM | IC50 (NCI-H526): > 100 µM | IC50 (SNU387): > 100 µM | IC50 (SNU354): > 100 µM | IC50 (JHH6): > 100 µM | IC50 (MFM-223): 88.3 µM | IC50 (KM12): 79.1 µM | IC50 (SNU423): > 100 µM | IC50 (LNCAP-clone-FGC): 95.5 µM | IC50 (Alexander cells): > 100 µM | IC50 (NCI-H1703): 0.11 µM | IC50 (NCI-H661): > 100 µM | IC50 (DLD1): > 100 µM | IC50 (HuTu80): 27.7 µM | IC50 (T.T): > 100 µM | IC50 (SNU761): > 100 µM | IC50 (HCCLM3): > 100 µM | IC50 (Li-7): > 100 µM | IC50 (SNU182): > 100 µM | IC50 (HUH6): > 100 µM | IC50 (K562): > 100 µM | IC50 (HLE): 88.3 µM | IC50 (SNU886): 75.2 µM | IC50 (TE-15): > 100 µM

Structure (SMILES): Cc1ccc(F)c(NC(=O)Nc2ccc(-c3cccc4[nH]nc(NC(=O)CCCCCCCCCCCNC(=O)C[C@H](N)C(=O)N[C@@H](CCC(=O)N[C@@H](CCC(=O)N[C@@H](CCC(=O)N[C@@H](CCC(=O)N[C@@H](CCC(=O)N[C@@H](CCC(=O)N[C@@H](CCC(=O)N[C@@H](CCC(=O)N[C@@H](CCC(=O)O)C(=O)O)C(=O)O)C(=O)O)C(=O)O)C(=O)O)C(=O)O)C(=O)O)C(=O)O)C(=O)O)c34)cc2)c1 [Compound 9]
IC50 (HUH7): 88.5 µM | IC50 (TE-6): > 100 µM | IC50 (LC-2-ad): > 100 µM | IC50 (HT1080): > 100 µM | IC50 (NCI-H526): > 100 µM | IC50 (SNU387): > 100 µM | IC50 (SNU354): > 100 µM | IC50 (JHH6): > 100 µM | IC50 (MFM-223): > 100 µM | IC50 (KM12): > 100 µM | IC50 (SNU423): > 100 µM | IC50 (LNCAP-clone-FGC): > 100 µM | IC50 (Alexander cells): > 100 µM | IC50 (NCI-H1703): 0.35 µM | IC50 (NCI-H661): > 100 µM | IC50 (DLD1): > 100 µM | IC50 (HuTu80): 90.4 µM | IC50 (T.T): > 100 µM | IC50 (SNU761): > 100 µM | IC50 (HCCLM3): > 100 µM | IC50 (Li-7): > 100 µM | IC50 (SNU182): > 100 µM | IC50 (HUH6): > 100 µM | IC50 (K562): > 100 µM | IC50 (HLE): > 100 µM | IC50 (SNU886): > 100 µM | IC50 (TE-15): > 100 µM

From US11712434B2, “Compound having anti-cancer effect, and preparation method therefor and use thereof” (3D MEDICINES (BEIJING) CO., LTD., priority 2016, dated 2023)
